# What was measured:
# Assay in all cases: radiometric filter-binding kinase assay, Kinase HotSpot
# Settings in all cases: compound 0.5 µM; ATP 10 µM
# [1] = biological target: HIPK3 (human) (UniProt Q9H422)
# [2] = biological target: GSK3A (human) (UniProt P49840)
# [3] = biological target: CAMKK1 (human) (UniProt Q8N5S9)
# [4] = biological target: MAPK1 (human) (UniProt P28482)
# [5] = biological target: YES1 (human) (UniProt P07947)
# [6] = biological target: NEK9 (human) (UniProt Q8TD19)
# [7] = biological target: EPHA7 (human) (UniProt Q15375)
# [8] = biological target: AKT2 (human) (UniProt P31751)
# [9] = biological target: PKN1 (human) (UniProt Q16512)
# [10] = biological target: PAK3 (human) (UniProt O75914)
# PAK3 (human), sequence (O75914 whole entry, looked up): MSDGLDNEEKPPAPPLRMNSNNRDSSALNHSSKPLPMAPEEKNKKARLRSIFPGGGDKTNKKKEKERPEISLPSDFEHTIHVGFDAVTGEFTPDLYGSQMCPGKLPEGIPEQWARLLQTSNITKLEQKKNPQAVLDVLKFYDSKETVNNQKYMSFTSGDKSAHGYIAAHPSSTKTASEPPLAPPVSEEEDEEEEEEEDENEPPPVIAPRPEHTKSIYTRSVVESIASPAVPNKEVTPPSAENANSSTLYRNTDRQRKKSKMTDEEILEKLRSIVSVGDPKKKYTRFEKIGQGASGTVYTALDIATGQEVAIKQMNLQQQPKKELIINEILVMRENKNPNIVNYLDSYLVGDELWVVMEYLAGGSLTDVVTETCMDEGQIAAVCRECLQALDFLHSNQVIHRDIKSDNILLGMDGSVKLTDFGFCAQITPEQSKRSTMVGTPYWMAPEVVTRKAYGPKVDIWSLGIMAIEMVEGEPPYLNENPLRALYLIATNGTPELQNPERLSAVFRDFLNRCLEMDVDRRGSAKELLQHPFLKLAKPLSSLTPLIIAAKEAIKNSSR
# [11] = biological target: MUSK (human) (UniProt O15146)
# MUSK (human), sequence (O15146 whole entry, looked up): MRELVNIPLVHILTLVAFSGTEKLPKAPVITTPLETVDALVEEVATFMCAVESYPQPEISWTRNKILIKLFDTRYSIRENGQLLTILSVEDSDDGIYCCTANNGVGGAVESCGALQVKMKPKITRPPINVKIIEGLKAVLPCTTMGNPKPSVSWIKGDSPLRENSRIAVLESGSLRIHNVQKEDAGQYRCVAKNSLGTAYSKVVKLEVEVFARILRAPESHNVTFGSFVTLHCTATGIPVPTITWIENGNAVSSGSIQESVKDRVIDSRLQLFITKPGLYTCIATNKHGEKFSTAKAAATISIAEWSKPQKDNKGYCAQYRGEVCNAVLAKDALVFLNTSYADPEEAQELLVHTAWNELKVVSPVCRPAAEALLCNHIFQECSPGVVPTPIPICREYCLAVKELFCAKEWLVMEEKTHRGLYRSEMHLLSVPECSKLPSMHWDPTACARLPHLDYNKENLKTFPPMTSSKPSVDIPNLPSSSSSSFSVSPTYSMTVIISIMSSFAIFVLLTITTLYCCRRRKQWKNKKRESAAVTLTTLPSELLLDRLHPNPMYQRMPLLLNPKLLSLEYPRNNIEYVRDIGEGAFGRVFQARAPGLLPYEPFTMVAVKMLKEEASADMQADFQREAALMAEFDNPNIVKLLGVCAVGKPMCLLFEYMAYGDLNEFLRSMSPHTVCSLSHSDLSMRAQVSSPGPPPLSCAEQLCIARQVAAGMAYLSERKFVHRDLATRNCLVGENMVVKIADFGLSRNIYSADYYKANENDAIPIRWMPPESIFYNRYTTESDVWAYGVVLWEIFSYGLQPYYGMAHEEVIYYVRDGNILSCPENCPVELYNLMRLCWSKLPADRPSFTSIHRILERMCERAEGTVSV
# [12] = biological target: ADRBK1 (human) (UniProt P25098)
# [13] = biological target: NEK7 (human) (UniProt Q8TDX7)
# [14] = biological target: EPHA3 (human) (UniProt P29320)
# [15] = biological target: MST1R (human) (UniProt Q04912)
# [16] = biological target: PDPK1 (human) (UniProt O15530)
# [17] = biological target: ROCK1 (human) (UniProt Q13464)
# [18] = biological target: AURKA (human) (UniProt O14965)
# [19] = biological target: MARK1 (human) (UniProt Q9P0L2)
# [20] = biological target: STK39 (human) (UniProt Q9UEW8)
# [21] = biological target: PDGFRA (human) (UniProt P16234)
# [22] = biological target: SIK2 (human) (UniProt Q9H0K1)
# [23] = biological target: STK4 (human) (UniProt Q13043)
# [24] = biological target: STK3 (human) (UniProt Q13188)
# STK3 (human), sequence (Q13188 whole entry, looked up): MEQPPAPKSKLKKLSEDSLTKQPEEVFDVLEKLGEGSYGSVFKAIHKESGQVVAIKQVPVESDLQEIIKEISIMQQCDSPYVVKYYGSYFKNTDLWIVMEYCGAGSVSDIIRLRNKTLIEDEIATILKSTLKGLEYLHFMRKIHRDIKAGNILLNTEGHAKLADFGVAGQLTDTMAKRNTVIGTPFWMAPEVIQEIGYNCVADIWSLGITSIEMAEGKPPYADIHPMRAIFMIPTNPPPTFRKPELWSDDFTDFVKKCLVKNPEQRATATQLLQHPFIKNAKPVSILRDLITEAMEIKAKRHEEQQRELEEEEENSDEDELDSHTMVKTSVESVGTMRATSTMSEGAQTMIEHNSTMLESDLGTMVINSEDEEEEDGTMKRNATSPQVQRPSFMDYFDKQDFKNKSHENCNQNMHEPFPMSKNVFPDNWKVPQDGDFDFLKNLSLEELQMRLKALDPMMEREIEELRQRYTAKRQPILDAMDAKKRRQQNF
# [25] = biological target: ULK3 (human) (UniProt Q6PHR2)
# ULK3 (human), sequence (Q6PHR2 whole entry, looked up): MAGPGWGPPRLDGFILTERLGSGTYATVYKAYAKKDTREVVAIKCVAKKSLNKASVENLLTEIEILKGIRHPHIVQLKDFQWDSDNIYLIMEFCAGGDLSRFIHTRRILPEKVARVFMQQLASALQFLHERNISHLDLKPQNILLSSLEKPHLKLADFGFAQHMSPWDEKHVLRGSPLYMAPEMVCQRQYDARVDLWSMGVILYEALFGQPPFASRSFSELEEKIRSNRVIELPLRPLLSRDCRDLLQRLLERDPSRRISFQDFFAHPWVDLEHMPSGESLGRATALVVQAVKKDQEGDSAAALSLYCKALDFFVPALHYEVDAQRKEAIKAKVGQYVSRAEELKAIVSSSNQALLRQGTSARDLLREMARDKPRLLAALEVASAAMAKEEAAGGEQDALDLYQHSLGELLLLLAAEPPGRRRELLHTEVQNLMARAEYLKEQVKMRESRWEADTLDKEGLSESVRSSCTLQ
# [26] = biological target: STK25 (human) (UniProt O00506)
# [27] = biological target: EGFR (human) (UniProt P00533)
# [28] = biological target: MAPKAPK5 (human) (UniProt Q8IW41)
# MAPKAPK5 (human), sequence (Q8IW41 whole entry, looked up): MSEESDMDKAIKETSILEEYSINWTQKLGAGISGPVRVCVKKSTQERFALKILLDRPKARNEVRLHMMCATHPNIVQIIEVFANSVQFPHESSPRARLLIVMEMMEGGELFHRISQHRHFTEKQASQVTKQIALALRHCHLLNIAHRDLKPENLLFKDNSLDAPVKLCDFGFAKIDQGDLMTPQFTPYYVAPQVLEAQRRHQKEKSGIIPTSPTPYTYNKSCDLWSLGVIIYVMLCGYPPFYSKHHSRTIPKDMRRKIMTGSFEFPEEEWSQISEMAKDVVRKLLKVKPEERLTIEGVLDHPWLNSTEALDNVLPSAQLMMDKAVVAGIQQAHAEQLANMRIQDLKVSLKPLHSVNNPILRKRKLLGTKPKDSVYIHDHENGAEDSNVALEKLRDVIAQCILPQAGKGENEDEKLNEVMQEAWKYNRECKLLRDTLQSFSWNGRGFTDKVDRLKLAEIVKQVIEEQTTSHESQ
# [29] = biological target: MAP3K7 TAB1 (human) (UniProt O43318+Q15750)
# [30] = biological target: CAMKK2 (human) (UniProt Q96RR4)
# CAMKK2 (human), sequence (Q96RR4 whole entry, looked up): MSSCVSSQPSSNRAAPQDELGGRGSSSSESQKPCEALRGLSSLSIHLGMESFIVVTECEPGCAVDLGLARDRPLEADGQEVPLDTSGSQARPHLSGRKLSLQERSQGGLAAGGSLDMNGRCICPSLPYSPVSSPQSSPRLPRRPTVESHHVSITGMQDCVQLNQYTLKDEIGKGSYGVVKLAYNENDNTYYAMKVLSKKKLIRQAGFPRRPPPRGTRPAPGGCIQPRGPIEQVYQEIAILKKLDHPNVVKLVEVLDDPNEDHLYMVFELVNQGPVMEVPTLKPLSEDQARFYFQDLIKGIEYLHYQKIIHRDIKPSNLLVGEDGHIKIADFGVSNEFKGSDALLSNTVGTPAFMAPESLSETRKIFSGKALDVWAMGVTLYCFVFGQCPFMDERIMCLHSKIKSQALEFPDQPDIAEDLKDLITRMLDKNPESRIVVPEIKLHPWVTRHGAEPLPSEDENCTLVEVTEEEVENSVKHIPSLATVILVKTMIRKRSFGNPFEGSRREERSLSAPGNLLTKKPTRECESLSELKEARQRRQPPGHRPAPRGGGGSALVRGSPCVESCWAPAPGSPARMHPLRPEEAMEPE
# [31] = biological target: MAP3K2 (human) (UniProt Q9Y2U5)
# [32] = biological target: FLT3 (human) (UniProt P36888)
# [33] = biological target: RPS6KA4 KD2 (human) (UniProt O75676)
# [34] = biological target: GSG2 (human) (UniProt Q8TF76)
# GSG2 (human), sequence (Q8TF76 whole entry, looked up): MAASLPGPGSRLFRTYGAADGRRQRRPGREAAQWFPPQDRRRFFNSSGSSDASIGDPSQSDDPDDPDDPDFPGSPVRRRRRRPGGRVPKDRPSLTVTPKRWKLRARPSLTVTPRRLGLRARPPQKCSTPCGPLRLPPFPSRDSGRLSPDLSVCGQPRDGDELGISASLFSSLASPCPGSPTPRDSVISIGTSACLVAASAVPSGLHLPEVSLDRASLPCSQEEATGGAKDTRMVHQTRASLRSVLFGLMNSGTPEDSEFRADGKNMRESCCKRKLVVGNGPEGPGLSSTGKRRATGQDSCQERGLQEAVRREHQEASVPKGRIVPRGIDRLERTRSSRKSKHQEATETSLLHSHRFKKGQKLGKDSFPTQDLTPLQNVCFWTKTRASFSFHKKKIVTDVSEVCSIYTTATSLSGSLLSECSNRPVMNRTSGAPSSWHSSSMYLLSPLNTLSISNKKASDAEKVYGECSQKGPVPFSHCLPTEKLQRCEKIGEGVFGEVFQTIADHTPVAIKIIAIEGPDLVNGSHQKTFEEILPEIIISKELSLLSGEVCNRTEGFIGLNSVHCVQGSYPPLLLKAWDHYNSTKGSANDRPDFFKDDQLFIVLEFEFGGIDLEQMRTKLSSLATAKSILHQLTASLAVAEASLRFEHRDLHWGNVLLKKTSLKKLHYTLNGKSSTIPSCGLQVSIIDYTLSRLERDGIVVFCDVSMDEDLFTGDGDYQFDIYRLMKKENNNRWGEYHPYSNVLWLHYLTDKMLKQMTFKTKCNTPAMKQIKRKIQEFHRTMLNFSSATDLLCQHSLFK
# [35] = biological target: EPHA5 (human) (UniProt P54756)
# [36] = biological target: MAPKAPK3 (human) (UniProt Q16644)
# [37] = biological target: CDK5 CDK5R1 p25 (human) (UniProt Q00535+Q15078)
# CDK5 CDK5R1 p25 (human), sequence (Q00535 whole entry, looked up): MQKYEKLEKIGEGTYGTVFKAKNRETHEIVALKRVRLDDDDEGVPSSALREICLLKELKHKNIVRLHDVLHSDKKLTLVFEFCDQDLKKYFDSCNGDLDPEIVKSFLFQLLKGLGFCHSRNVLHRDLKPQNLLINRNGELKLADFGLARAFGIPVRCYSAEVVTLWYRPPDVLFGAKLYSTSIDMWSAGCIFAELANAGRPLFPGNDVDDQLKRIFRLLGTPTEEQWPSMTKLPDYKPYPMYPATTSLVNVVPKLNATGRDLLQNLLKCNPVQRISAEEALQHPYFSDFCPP
# CDK5 CDK5R1 p25 (human), sequence (Q15078 whole entry, looked up): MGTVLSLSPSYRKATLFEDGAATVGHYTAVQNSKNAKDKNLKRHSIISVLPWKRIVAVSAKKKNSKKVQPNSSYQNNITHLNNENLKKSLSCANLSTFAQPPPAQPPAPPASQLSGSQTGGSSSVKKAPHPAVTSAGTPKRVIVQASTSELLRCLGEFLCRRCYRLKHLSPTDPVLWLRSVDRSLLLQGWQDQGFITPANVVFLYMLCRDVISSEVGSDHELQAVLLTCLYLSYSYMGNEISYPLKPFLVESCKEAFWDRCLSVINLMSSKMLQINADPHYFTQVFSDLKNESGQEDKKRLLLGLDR
# [38] = biological target: GSK3B (human) (UniProt P49841)
# [39] = biological target: FYN (human) (UniProt P06241)
# [40] = biological target: LIMK1 (human) (UniProt P53667)
# [41] = biological target: CAMK1G (human) (UniProt Q96NX5)
# [42] = biological target: CSF1R (human) (UniProt P07333)
smiles,measurement,setting,value
Cc1ccc(Nc2nccc(N(C)c3ccc4c(C)n(C)nc4c3)n2)cc1S(N)(=O)=O,residual activity,[1],103%
same,residual activity,[2],101%
same,residual activity,[3],72%
same,residual activity,[4],103%
same,residual activity,[5],52.6%
same,residual activity,[6],95.8%
same,residual activity,[7],94.1%
same,residual activity,[8],107%
same,residual activity,[9],102%
same,residual activity,[10],90.6%
same,residual activity,[11],95.1%
same,residual activity,[12],90.3%
same,residual activity,[13],101%
same,residual activity,[14],94.1%
same,residual activity,[15],97.8%
same,residual activity,[16],93%
same,residual activity,[17],100%
same,residual activity,[18],38.4%
same,residual activity,[19],99.9%
same,residual activity,[20],95.9%
same,residual activity,[21],13.9%
same,residual activity,[22],84.1%
same,residual activity,[23],98.4%
same,residual activity,[24],95.4%
same,residual activity,[25],102%
same,residual activity,[26],97.3%
same,residual activity,[27],91%
same,residual activity,[28],100%
same,residual activity,[29],90.6%
same,residual activity,[30],98.5%
same,residual activity,[31],110%
same,residual activity,[32],40.7%
same,residual activity,[33],102%
same,residual activity,[34],90.4%
same,residual activity,[35],99.7%
same,residual activity,[36],98.5%
same,residual activity,[37],95.1%
COc1cc2ncnc(Nc3cccc(Cl)c3)c2cc1OC,residual activity,[1],98.9%
same,residual activity,[2],104%
same,residual activity,[3],92.2%
same,residual activity,[4],91.7%
same,residual activity,[5],59.9%
same,residual activity,[6],82.6%
same,residual activity,[7],65%
same,residual activity,[8],84.1%
same,residual activity,[9],96.8%
same,residual activity,[10],98.9%
same,residual activity,[11],88.3%
same,residual activity,[12],96.6%
same,residual activity,[13],99%
same,residual activity,[14],97.9%
same,residual activity,[15],87.8%
same,residual activity,[16],81.9%
same,residual activity,[17],95.9%
same,residual activity,[18],93.3%
same,residual activity,[38],98.7%
same,residual activity,[20],97%
same,residual activity,[39],85.7%
same,residual activity,[21],93.3%
same,residual activity,[40],72.4%
same,residual activity,[22],98.7%
same,residual activity,[23],92%
same,residual activity,[41],93.6%
same,residual activity,[24],124%
same,residual activity,[25],77.3%
same,residual activity,[26],101%
same,residual activity,[27],0.718%
same,residual activity,[28],89.5%
same,residual activity,[29],96.9%
same,residual activity,[30],97.5%
same,residual activity,[31],98.2%
same,residual activity,[32],37.6%
same,residual activity,[33],94.5%
same,residual activity,[34],84.8%
same,residual activity,[42],98.2%
same,residual activity,[35],68.3%
same,residual activity,[36],92.7%
same,residual activity,[37],87.3%
CC(C)N(CCC(=O)c1ccc2ccccc2c1)Cc1ccccc1,residual activity,[1],115%
same,residual activity,[2],98.8%
same,residual activity,[3],104%
same,residual activity,[4],87.4%
same,residual activity,[5],100%
same,residual activity,[6],96.4%
same,residual activity,[7],106%
same,residual activity,[8],96.5%
same,residual activity,[9],107%
same,residual activity,[10],98.6%
same,residual activity,[11],112%
same,residual activity,[12],106%
same,residual activity,[13],95.2%
same,residual activity,[14],85%
same,residual activity,[15],92.6%
same,residual activity,[17],98.6%
same,residual activity,[18],104%
same,residual activity,[38],94.9%
same,residual activity,[19],97.7%
same,residual activity,[20],88.3%
same,residual activity,[39],95.3%
same,residual activity,[21],96.5%
same,residual activity,[40],103%
same,residual activity,[22],103%
same,residual activity,[23],92.5%
same,residual activity,[41],95.1%
same,residual activity,[24],102%
same,residual activity,[25],95.8%
same,residual activity,[26],94%
same,residual activity,[27],99.4%
same,residual activity,[28],96.6%
same,residual activity,[29],95.4%
same,residual activity,[30],85.2%
same,residual activity,[31],107%
same,residual activity,[32],97.5%
same,residual activity,[33],109%
same,residual activity,[34],95.6%
same,residual activity,[42],98.6%
same,residual activity,[35],118%
same,residual activity,[36],95.7%
same,residual activity,[37],96.5%

# From the kinase profiling compilation of Christmann-Franck et al. (2016)
